From patent US20060293295A1, “Pharmaceutical composition comprising progestogens and/or estrogens and 5-methyl- (6S)-tetrahydrofolate” (priority 2005, published 2006)
Read-outs that look alike come from different tables or passages of the source. Blank lines part the entries; values can stand above or below the molecule they belong to.

Columns and labels:
[1] = Compatibility investigation of binary mixtures with vitamin B12 by DSC; type: physicochemical; design: key to Compatibility: ++ good compatibility expected below the stated temperature; + compatibility below the stated temperature; ++/− indifferent compatibility, possibly good compatibility below the stated temperature; +/−− indifferent compatibility, appears to be compatible below the stated temperature; −(−−−) (strong) interaction, incompatible; −(−−−) (strong) interaction, incompatible; conditions: for Compatibility: binary mixture with vitamin B12, DSC, various gases and temperatures, stated temperature is 60° C. where given; for Comments: binary mixture with vitamin B12, cells wrap, all except Drospirenone and Ethinylestradiol ('very O2-sensitive') continue 'moisture-sensitive'
Procedure: Both vitamin B12 and 5-methyl-(6S)-tetrahydrofolate are unstable in the presence of atmospheric oxygen and humidity. […] Measurements of the incompatibilities between the intended formulation ingredients were carried out by a thermoanalytical method (DSC, differential scanning calorimetry). This allows incompatibilities to be recognized through low enthalpies of fusion and melting temperatures. These are caused for example by a reduced proportion of crystalline substance and the increase in impurities. In the determination, binary mixtures of excipients or active ingredients in each case with vitamin B12 were investigated, and the compatibility was examined under the influence of various gases and temperatures. […]

[2] = 50 rpm, 37° C., 0.03 percent aqueous ascorbic acid solution
Procedure: For this purpose, the tablets were investigated in an in vitro dissolution test using a USP paddle apparatus at 50 rpm and 37° C. in a 0.03 percent aqueous ascorbic acid solution.

[3] = Procedure: The investigated formulation was prepared (process 2) by mixing the ingredients, granulating with the part of the corn starch used as binder, absorbing the 5-methyl-(6S)-tetrahydrofolate after completion of the granulation process, renewed mixing and tableting. By comparison therewith, polyvinylpyrrolidone was added as binder instead of corn starch to the formulation by process 3.
The difference between process 1 and process 2 derives from the time at which the 5-methyl-(6S)-tetrahydrofolate was added during the preparation of the investigated tablet. In process 1, the 5-methyl-(6S)-tetrahydrofolate was present in the mixture even during the granulation, whereas in process 2 it was absorbed only after the granulation.

[4] = one month
From the text: An oral formulation is normally prepared by granulation, tableting and film-coating.

[5] = intake at the right time around conception; cited from earlier work
[6] = of Metafolin content per tablet immediately after preparation
[7] = per tablet, of specified content 100%, immediately after preparation, average
[8] = vials closed, listed as 5-methyl-(6S)-tetrahydrofolate

Molecule: C[C@]12CCC(=O)C=C1[C@@H]1C[C@@H]1[C@H]1[C@@H]3[C@@H]4C[C@@H]4[C@@]4(CCC(=O)O4)[C@@]3(C)CC[C@@H]12 [Drospirenone]
Compatibility [1]: +
Comments [1]: O2-sensitive

Molecule: Nc1nc2ncc(CNc3ccc(C(=O)N[C@@H](CCC(=O)O)C(=O)O)cc3)nc2c(=O)[nH]1 [folic acid]
reduction of neural tube defects [5]: 50-70%

Molecule: Magnesium stearate
Compatibility [1]: ++/−
Comments [1]: O2-sensitive,

Continued, values first:

Compatibility [1]: +
Comments [1]: O2-sensitive,
Molecule: OC[C@H]1O[C@@H](O[C@H]2[C@H](O)[C@@H](O)C(O)O[C@@H]2CO)[C@H](O)[C@@H](O)[C@H]1O (stereo partly drawn) [Lactose]

5-Methyl-(6S)-tetrahydrofolate process 1 dissolution [%] ([2]; 0 min): 0%
5-Methyl-(6S)-tetrahydrofolate process 2 dissolution [%] ([2]; 0 min): 0%
5-Methyl-(6S)-tetrahydrofolate process 1 dissolution [%] ([2]; 10 min): 59.2%
5-Methyl-(6S)-tetrahydrofolate process 2 dissolution [%] ([2]; 10 min): 81.4%
5-Methyl-(6S)-tetrahydrofolate process 1 dissolution [%] ([2]; 15 min): 66.8%
5-Methyl-(6S)-tetrahydrofolate process 2 dissolution [%] ([2]; 15 min): 89.3%
5-Methyl-(6S)-tetrahydrofolate process 1 dissolution [%] ([2]; 30 min): 73.1%
5-Methyl-(6S)-tetrahydrofolate process 2 dissolution [%] ([2]; 30 min): 91.3%
5-Methyl-(6S)-tetrahydrofolate process 1 dissolution [%] ([2]; 45 min): 76.7%
5-Methyl-(6S)-tetrahydrofolate process 2 dissolution [%] ([2]; 45 min): 91.1%
5-Methyl-(6S)-tetrahydrofolate process 1 dissolution [%] ([2]; 60 min): 75.8%
5-Methyl-(6S)-tetrahydrofolate process 2 dissolution [%] ([2]; 60 min): 91.2%
Distribution coefficient, absorption (process 2) [3, 6]: 2.5
Distribution coefficient, granulation (process 1) [3, 6]: 6.1
Metafolin content granulation (process 1) ([3]; per tablet, immediately after preparation, average): 88.5%
Metafolin content absorption, PVP (process 3) [3, 7]: 90.5%
Metafolin content absorption, corn starch (process 2) [3, 7]: 96.1%
Metafolin content 25° C./60% rH absorption (process 2) ([4]; vials closed): 92.5%
Metafolin content 25° C./60% rH granulation (process 1) ([4]; vials closed): 74.5%
Metafolin content 40° C./75% rH absorption (process 2) ([4]; vials closed): 90.1%
Metafolin content 40° C./75% rH granulation (process 1) ([4]; vials closed): 58.9%
Metafolin content 40° C./75% rH absorption (process 2) [4, 8]: above 90%
Metafolin content 40° C./75% rH granulation (process 1) [4, 8]: ~60%
Metafolin content 25° C./60% rH absorption PVP (process 3) ([4]; vials open): 89.5%
Metafolin content 25° C./60% rH absorption corn starch (process 2) ([4]; vials open): 92.1%
Metafolin content 25° C./60% rH granulation (process 1) ([4]; vials open): 63.2%
Metafolin content 40° C./75% rH absorption PVP (process 3) ([4]; vials open): 37.7%
Metafolin content 40° C./75% rH absorption corn starch (process 2) ([4]; vials open): 67.7%
Metafolin content 40° C./75% rH granulation (process 1) ([4]; vials open): 43.4%
Molecule: CN1c2c(nc(N)[nH]c2=O)NC[C@@H]1CNc1ccc(C(=O)N[C@@H](CCC(=O)O)C(=O)O)cc1 [Metafolin]
